Test: Solubility of FDCA for a given temperature and solvent
Assay type: physicochemical
Settings: for Solubility at T, wt % in solvent / Solubility at temp., wt % in solvent: estimated FDCA solubility
Text: The skilled person can adjust the thermal treatment conditions to the required degree of dissolution, wherein the following table can be used that lists values for the solubility of FDCA at a given temperature depending on the solvent composition employed. […] Intermediate values can be obtained by interpolation.
For a better understanding, the estimated FDCA solubility in the given solvent at the process temperature is provided as well.

Solubility of FDCA (HAc:Water 0:100 by weight, 140° C.): 7.0 wt % | Solubility of FDCA (HAc:Water 0:100 by weight, 150° C.): 9.2 wt % | Solubility of FDCA (HAc:Water 0:100 by weight, 160° C.): 11.7 wt % | Solubility of FDCA (HAc:Water 0:100 by weight, 170° C.): 14.8 wt % | Solubility of FDCA (HAc:Water 0:100 by weight, 180° C.): 18.4 wt % | Solubility of FDCA (HAc:Water 0:100 by weight, 190° C.): 22.4 wt % | Solubility of FDCA (HAc:Water 0:100 by weight, 200° C.): 26.8 wt % | Solubility of FDCA (HAc:Water 10:90 by weight, 140° C.): 7.7 wt % | Solubility of FDCA (HAc:Water 10:90 by weight, 150° C.): 9.9 wt % | Solubility of FDCA (HAc:Water 10:90 by weight, 160° C.): 12.6 wt % | Solubility of FDCA (HAc:Water 10:90 by weight, 170° C.): 15.6 wt % | Solubility of FDCA (HAc:Water 10:90 by weight, 180° C.): 19.2 wt % | Solubility of FDCA (HAc:Water 10:90 by weight, 190° C.): 23.1 wt % | Solubility of FDCA (HAc:Water 10:90 by weight, 200° C.): 27.4 wt % | Solubility of FDCA (HAc:Water 20:80 by weight, 140° C.): 8.3 wt % | Solubility of FDCA (HAc:Water 20:80 by weight, 150° C.): 10.6 wt % | Solubility of FDCA (HAc:Water 20:80 by weight, 160° C.): 13.3 wt % | Solubility of FDCA (HAc:Water 20:80 by weight, 170° C.): 16.3 wt % | Solubility of FDCA (HAc:Water 20:80 by weight, 180° C.): 19.8 wt % | Solubility of FDCA (HAc:Water 20:80 by weight, 190° C.): 23.7 wt % | Solubility of FDCA (HAc:Water 20:80 by weight, 200° C.): 27.8 wt % | Solubility of FDCA (HAc:Water 30:70 by weight, 140° C.): 8.9 wt % | Solubility of FDCA (HAc:Water 30:70 by weight, 150° C.): 11.1 wt % | Solubility of FDCA (HAc:Water 30:70 by weight, 160° C.): 13.8 wt % | Solubility of FDCA (HAc:Water 30:70 by weight, 170° C.): 16.8 wt % | Solubility of FDCA (HAc:Water 30:70 by weight, 180° C.): 20.1 wt % | Solubility of FDCA (HAc:Water 30:70 by weight, 190° C.): 23.8 wt % | Solubility of FDCA (HAc:Water 30:70 by weight, 200° C.): 27.8 wt % | Solubility of FDCA (HAc:Water 40:60 by weight, 140° C.): 9.1 wt % | Solubility of FDCA (HAc:Water 40:60 by weight, 150° C.): 11.3 wt % | Solubility of FDCA (HAc:Water 40:60 by weight, 160° C.): 13.9 wt % | Solubility of FDCA (HAc:Water 40:60 by weight, 170° C.): 16.7 wt % | Solubility of FDCA (HAc:Water 40:60 by weight, 180° C.): 19.9 wt % | Solubility of FDCA (HAc:Water 40:60 by weight, 190° C.): 23.4 wt % | Solubility of FDCA (HAc:Water 40:60 by weight, 200° C.): 27.1 wt % | Solubility of FDCA (HAc:Water 50:50 by weight, 140° C.): 9.0 wt % | Solubility of FDCA (HAc:Water 50:50 by weight, 150° C.): 11.0 wt % | Solubility of FDCA (HAc:Water 50:50 by weight, 160° C.): 13.4 wt % | Solubility of FDCA (HAc:Water 50:50 by weight, 170° C.): 16.0 wt % | Solubility of FDCA (HAc:Water 50:50 by weight, 180° C.): 19.0 wt % | Solubility of FDCA (HAc:Water 50:50 by weight, 190° C.): 22.1 wt % | Solubility of FDCA (HAc:Water 50:50 by weight, 200° C.): 25.6 wt % | Solubility of FDCA (HAc:Water 60:40 by weight, 140° C.): 8.2 wt % | Solubility of FDCA (HAc:Water 60:40 by weight, 150° C.): 10.0 wt % | Solubility of FDCA (HAc:Water 60:40 by weight, 160° C.): 12.1 wt % | Solubility of FDCA (HAc:Water 60:40 by weight, 170° C.): 14.5 wt % | Solubility of FDCA (HAc:Water 60:40 by weight, 180° C.): 17.0 wt % | Solubility of FDCA (HAc:Water 60:40 by weight, 190° C.): 19.9 wt % | Solubility of FDCA (HAc:Water 60:40 by weight, 200° C.): 22.9 wt % | Solubility of FDCA (HAc:Water 70:30 by weight, 140° C.): 6.8 wt % | Solubility of FDCA (HAc:Water 70:30 by weight, 150° C.): 8.3 wt % | Solubility of FDCA (HAc:Water 70:30 by weight, 160° C.): 10.0 wt % | Solubility of FDCA (HAc:Water 70:30 by weight, 170° C.): 12.0 wt % | Solubility of FDCA (HAc:Water 70:30 by weight, 180° C.): 14.2 wt % | Solubility of FDCA (HAc:Water 70:30 by weight, 190° C.): 16.6 wt % | Solubility of FDCA (HAc:Water 70:30 by weight, 200° C.): 19.2 wt % | Solubility of FDCA (HAc:Water 80:20 by weight, 140° C.): 4.9 wt % | Solubility of FDCA (HAc:Water 80:20 by weight, 150° C.): 6.1 wt % | Solubility of FDCA (HAc:Water 80:20 by weight, 160° C.): 7.5 wt % | Solubility of FDCA (HAc:Water 80:20 by weight, 170° C.): 9.1 wt % | Solubility of FDCA (HAc:Water 80:20 by weight, 180° C.): 10.9 wt % | Solubility of FDCA (HAc:Water 80:20 by weight, 190° C.): 12.9 wt % | Solubility of FDCA (HAc:Water 80:20 by weight, 200° C.): 15.1 wt % | Solubility of FDCA (HAc:Water 90:10 by weight, 140° C.): 3.5 wt % | Solubility of FDCA (HAc:Water 90:10 by weight, 150° C.): 4.5 wt % | Solubility of FDCA (HAc:Water 90:10 by weight, 160° C.): 5.6 wt % | Solubility of FDCA (HAc:Water 90:10 by weight, 170° C.): 7.0 wt % | Solubility of FDCA (HAc:Water 90:10 by weight, 180° C.): 8.7 wt % | Solubility of FDCA (HAc:Water 90:10 by weight, 190° C.): 10.6 wt % | Solubility of FDCA (HAc:Water 90:10 by weight, 200° C.): 12.8 wt % | Solubility of FDCA (HAc:Water 95:5 by weight, 140° C.): 3.3 wt % | Solubility of FDCA (HAc:Water 95:5 by weight, 150° C.): 4.4 wt % | Solubility of FDCA (HAc:Water 95:5 by weight, 160° C.): 5.7 wt % | Solubility of FDCA (HAc:Water 95:5 by weight, 170° C.): 7.3 wt % | Solubility of FDCA (HAc:Water 95:5 by weight, 180° C.): 9.3 wt % | Solubility of FDCA (HAc:Water 95:5 by weight, 190° C.): 11.6 wt % | Solubility of FDCA (HAc:Water 95:5 by weight, 200° C.): 14.3 wt % | Solubility at T, wt % in solvent (HAc:Water 0:100, 130° C. (test Comp. 4)): 5.3 wt % in solvent | Solubility at temp., wt % in solvent (HAc:Water 0:100, 180° C. (test Ex. 3)): 18.4 wt % in solvent | Solubility at T, wt % in solvent (HAc:Water 70:30, 125° C. (test Comp. 3)): 6.1 wt % in solvent | Solubility at temp., wt % in solvent (HAc:Water 70:30, 180° C. (tests Ex. 1, Ex. 2)): 14.2 wt % in solvent
Structure (SMILES): O=C(O)c1ccc(C(=O)O)o1 [FDCA, 2,5-Furandicarboxylic acid]

Reference: patent US12371411B2, “Water and thermal treatment of purified 2,5-furandicarboxylic acid” (Furanix Technologies B.V., priority 2019, dated 2025)
